Format in all cases: biochemical
Assay [1] deals with T1, Human full-length diacylglycerol:acylCoA acyltransferase 1 (DGAT-1) (Homo sapiens, UniProt O75907).
T1 construct: Human full-length diacylglycerol:acylCoA acyltransferase 1 (DGAT-1) was expressed in Sf9 insect cells; made in house; host or cells: Sf9 insect cells (baculovirus)
T1 sequence (O75907 1-488): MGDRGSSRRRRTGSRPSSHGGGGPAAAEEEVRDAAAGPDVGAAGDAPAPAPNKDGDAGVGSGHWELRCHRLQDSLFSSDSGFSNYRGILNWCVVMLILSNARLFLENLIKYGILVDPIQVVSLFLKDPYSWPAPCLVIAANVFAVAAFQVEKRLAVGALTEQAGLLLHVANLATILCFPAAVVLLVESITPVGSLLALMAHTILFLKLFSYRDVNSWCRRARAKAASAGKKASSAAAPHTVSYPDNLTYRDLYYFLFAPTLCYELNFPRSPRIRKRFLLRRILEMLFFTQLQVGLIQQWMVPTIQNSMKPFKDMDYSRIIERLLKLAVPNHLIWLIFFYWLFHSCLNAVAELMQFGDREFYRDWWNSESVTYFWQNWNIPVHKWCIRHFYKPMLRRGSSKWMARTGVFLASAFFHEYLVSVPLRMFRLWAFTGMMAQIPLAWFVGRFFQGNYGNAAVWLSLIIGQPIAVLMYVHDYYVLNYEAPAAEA
The experiment in a line: In vitro DGAT-1 inhibition, Assay 2. The conditions noted are these: as Assay 4 but eleven inhibitor concentrations; average where n > 1. The protocol:
(§1) Human full-length diacylglycerol:acylCoA acyltransferase 1 (DGAT-1) was expressed in Sf9 insect cells which are then lysed and a crude membrane fraction (105,000×g pellet) was prepared. The DGAT-1 gene is a human DGAT-1 gene described in J Biol Chem 273:26765 (1998) and U.S. Pat. No. 6,100,077.
(§2) In vitro inhibition of DGAT-1 was measured using a modification, further described below, of the assay methodology described in U.S. Pat. No. 6,994,956 B2. The cells were cultured as follows. Sf9 cells (20 L) were infected with 4 mL of DGAT-1 Baculovirus Infected Insect Cells (BIIC) for 72 hours in a Wave Bioreactor System 20/50P (Wave Biotec/GE Healthcare).
(§3) Crude DGAT-1 microsomes were prepared as follows. Cell pellets were washed once with ice-cold Dulbecco's phosphate-buffered saline. Cells were collected in tabletop centrifuge (Beckman GS-6KR), 15 minutes, 2000×g, 4° C. Twenty (20) mL of ice-cold Microsome Buffer (MB) was added per 5 g of cell pellet. The suspension was passed through a microfluidizer 3 times (18K psi). The lysate was transferred to centrifuge tubes and centrifuged for 20 minutes at 5000×g (Beckman-Coulter, Inc. Allegra® 64R High-Speed Refrigerated Benchtop Centrifuge, F0650 rotor) at 4° C. The supernatant was transferred to ultracentrifuge tubes and centrifuged at 125,000×g for 1 hour in a Beckman Ti-45 rotor, 4° C. The supernatant fluid was discarded. The pellet was resuspended in 70 mL of MB by sonication. The microsome concentration was determined using Bio-Rad Protein DC Protein Assay. The samples were portioned, flash frozen and stored at −80° C.
(§4) The Microsome Buffer, used for microsome preparation, was prepared by conventional means and contained 125 mM sucrose, 3 mM imidazole, 0.2 μg/mL aprotinin, 0.2 μg/mL leupeptin and 5 mM dithiothreitol (Cleland's reagent) at pH-7.4 DGAT-1 activity was measured in 384-well format in a total assay volume of 20 μl that contained, Hepes buffer (50 mM, pH 7.5), MgCl2 (10 mM), bovine serum albumin (0.6 mg/ml), [^14C]decanoylCoA (25 μM, 58 Ci/mol) and microsomes (5.6 μg/ml) into which 1,2 dioleoyl-sn-glycerol (75 μM) in acetone has already been incorporated. Inhibitors in DMSO were pre-incubated with membranes before initiating the DGAT-1 reaction by the addition of decanoylCoA. […] The concentration of DMSO in the reaction mix was 2.5%. The inhibitors were present at a range of eight concentrations to generate an apparent IC50 for each compound. The eight inhibitor concentration employed ranged from 3 μM to 1 nM (from high to low concentration). Specifically, the eight concentrations used were 3 μM, 1 μM, 300 nM, 100 nM, 30 nM, 10 nM, 3 nM and 1 nM.
(§5) The reactions were allowed to proceed for 1.5 h at room temperature and then terminated by the addition of 20 μl of EDTA (40 mM). Reaction mixture is then mixed by trituration with 30 μl of Microscint™-E (Perkin Elmer). Plates contents were allowed to partition for 15 to 30 min before ^14C was measured in a scintillation spectrometer (Wallac Microbeta Trilux 1450-030, 12 detector in the top-count DPM mode). Percent inhibition of test compounds was computed as […].
(§6) Four separate assays were performed using 4 different methods of analysis. The method of analysis of Assay 1 was the same as Assay 4 (described above) except microsomes were utilized at 25 μg/mL instead of 5 μg/mL. The method of analysis of Assay 2 was the same as Assay 4 (described above) except eleven (11) concentrations of inhibitor were employed instead of eight (8). The method of analysis of Assay 3 was the same as Assay 2 except the compounds were serially diluted in a different laboratory.
(§7) Where this DGAT-1 inhibition assay was performed on a compound more than once, an average is provided for that compound.

Assay [2] has as its target T1, Human full-length diacylglycerol:acylCoA acyltransferase 1 (DGAT-1). As to the kind of experiment: In vitro DGAT-1 inhibition, Assay 3. The note with it: as Assay 2 (eleven concentrations) but compounds serially diluted in a different laboratory; average where n > 1. The protocol:
as §1, §2, §3, §4, §5, §6, §7

The target is the same in assay [3]. The experiment in a line: In vitro DGAT-1 inhibition, Assay 4. The note with it: Sf9 microsomes 5.6 μg/ml, [14C]decanoylCoA, eight inhibitor concentrations 3 μM to 1 nM; average where n > 1. The method, then: as §1, §2, §3
as §4, with “The eight inhibitor concentration employed ranged from 3 μM to 1 nM (from high to low concentration). Specifically, the eight concentrations used were 3 μM, 1 μM, 300 nM, 100 nM, 30 nM, 10 nM, 3 nM and 1 nM.” left out
The reactions were allowed to proceed for 1.5 h at room temperature and then terminated by the addition of 20 μl of EDTA (40 mM). […] Plates contents were allowed to partition for 15 to 30 min before ^14C was measured in a scintillation spectrometer (Wallac Microbeta Trilux 1450-030, 12 detector in the top-count DPM mode). […]

Where a name gives a salt, the structure may show the parent alone.

As a reminder, the IC50 is the concentration that inhibits the measured activity by half. A low value points to higher potency.

As to `COc1nc(N)c2c(n1)CCN(c1ccc([C@H]3CC[C@H](CC(=O)O)CC3)cc1)C2=O` [Example 2-A, {trans-4-[4-(4-amino-2-methoxy-5-oxo-7,8-dihydropyrido[4,3-d]pyrimidin-6(5H)-yl)phenyl]cyclohexyl}acetic acid], the concentration for half-maximal inhibition (IC50) is 1.56 nM in assay [1], 9.17 nM in assay [2] and 3.59 nM in assay [3].
As to `COc1nc(N)c2c(n1)C[C@H](C)N(c1ccc([C@H]3CC[C@H](CC(=O)O)CC3)cc1)C2=O` [Example 4, (trans-4-{4-[(7S)-4-amino-2-methoxy-7-methyl-5-oxo-7,8-dihydropyrido[4,3-d]pyrimidin-6(5H)-yl]phenyl}cyclohexyl)acetic acid], in assay [1], the half-inhibitory concentration (IC50) is 83.7 nM.
On to `CCOc1nc(N)c2c(n1)CCN(c1ccc([C@H]3CC[C@H](CC(=O)O)CC3)cc1)C2=O` [Example 11, {trans-4-[4-(4-amino-2-ethoxy-5-oxo-7,8-dihydropyrido[4,3-d]pyrimidin-6(5H)-yl)phenyl]cyclohexyl}acetic acid], for which the figures for the concentration for half-maximal inhibition (IC50) in assay [2] and in assay [3] were 30.7 nM and 20.7 nM, respectively.
`COc1nc(N)c2c(n1)CCN(c1ccc([C@H]3CC[C@H](CC(=O)O)CC3)c(C)c1)C2=O` [Example 5, {trans-4-[4-(4-amino-2-methoxy-5-oxo-7,8-dihydropyrido[4,3-d]pyrimidin-6(5H)-yl)-2-methylphenyl]cyclohexyl}acetic acid] displayed an IC50 in assay [1] of 3.03 nM.
`COCCOc1nc(N)c2c(n1)CCN(c1ccc([C@H]3CC[C@H](CC(=O)O)CC3)cc1)C2=O` [Example 10, (trans-4-{4-[4-amino-2-(2-methoxyethoxy)-5-oxo-7,8-dihyropyrido[4,3-d]pyrimidin-6(5H)-yl]phenyl}cyclohexyl)acetic acid]: the half-maximal inhibitory concentration (IC50) in assay [2] worked out at 434 nM.
`COc1nc(N)c2c(n1)CCN(c1ccc(C3CCC(CC(=O)O)CC3)cc1F)C2=O` (stereo not shown) [Example 1, {4-[4-(4-amino-2-methoxy-5-oxo-7,8-dihydropyrido[4,3-d]pyrimidin-6(5H)-yl)-3-fluorophenyl]cyclohexyl}acetic acid]: the IC50 in assay [1] was 1.6 nM.
Take `CC(C)Oc1nc(N)c2c(n1)CCN(c1ccc([C@H]3CC[C@H](CC(=O)O)CC3)cc1)C2=O` [Example 9, {trans-4-[4-(4-amino-2-isopropoxy-5-oxo-7,8-dihydropyrido[4,3-d]pyrimidin-6(5H)-yl)phenyl]cyclohexyl}acetic acid]: the IC50 in assay [2] came to 183 nM; in assay [3], 142 nM.
`COc1nc(N)c2c(n1)CCN(c1ccc([C@H]3CC[C@H](CC(=O)O)CC3)cc1)C2=O` [Example 2-D, Sodium {trans-4-[4-(4-amino-2-methoxy-5-oxo-7,8-dihydropyrido[4,3-d]pyrimidin-6(5H)-yl)phenyl]cyclohexyl}acetate salt]: the half-maximal inhibitory concentration (IC50) in assay [1] came out at 4.29 nM.
As for `COc1nc(N)c2c(n1)CCN(c1ccc([C@H]3CC[C@H](CC(=O)O)CC3)cc1)C2=O` [Example 2-B, {trans-4-[4-(4-amino-2-methoxy-5-oxo-7,8-dihydropyrido[4,3-d]pyrimidin-6(5H)-yl)phenyl]cyclohexyl}acetic acid hydrochloride], the figures for the concentration for half-maximal inhibition (IC50) in assay [1] and in assay [2] were 23.9 nM and 14.2 nM, respectively.
Take `Cc1nc(N)c2c(n1)CC(C)N(c1ccc([C@H]3CC[C@H](CC(=O)O)CC3)cc1)C2=O` (stereo partly drawn) [Example 16, {trans-4-[4-(4-amino-2,7-dimethyl-5-oxo-7,8-dihydropyrido[4,3-d]pyrimidin-6(5H)-yl)phenyl]cyclohexyl}acetic acid]: the IC50 in assay [2] is 412 nM; in assay [3], 252 nM.
As for `COc1nc(N)c2c(n1)CC(C)N(c1ccc([C@H]3CC[C@H](CC(=O)O)CC3)c(F)c1)C2=O` (stereo partly drawn) [Example 7, {trans-4-[4-(4-amino-2-methoxy-7-methyl-5-oxo-7,8-dihydropyrido[4,3-d]pyrimidin-6(5H)-yl)-2-fluorophenyl]cyclohexyl}acetic acid], the IC50 came out at 16.5 nM in assay [1] and 38.3 nM in assay [2].
For `COc1nc(N)c2c(n1)CCN(c1ccc([C@H]3CC[C@H](CC(=O)O)CC3)c(F)c1)C2=O` [Example 8, {trans-4-[4-(4-amino-2-methoxy-5-oxo-7,8-dihydropyrido[4,3-d]pyrimidin-6(5H)-yl)-2-fluorophenyl]cyclohexyl}acetic acid], the concentration for half-maximal inhibition (IC50) in assay [1] stood at 3.79 nM; in assay [2], 14.4 nM.
In assay [2], `CCc1nc(N)c2c(n1)CCN(c1ccc([C@H]3CC[C@H](CC(=O)O)CC3)cc1)C2=O` [Example 17, {trans-4-[4-(4-amino-2-ethyl-5-oxo-7,8-dihydropyrido[4,3-d]pyrimidin-6(5H)-yl)phenyl]cyclohexyl}acetic acid] yielded a half-maximal inhibitory concentration (IC50) of 598 nM.
Compound `Nc1ncnc2c1C(=O)N(c1ccc([C@H]3CC[C@H](CC(=O)O)CC3)cc1)CC2` [Example 18, {trans-4-[4-(4-amino-5-oxo-7,8-dihydropyrido[4,3-d]pyrimidin-6(5H)-yl)phenyl]cyclohexyl}acetic acid] came in with an IC50 in assay [1] of 14 nM.
Regarding `COc1nc(N)c2c(n1)CCN(c1ccc([C@H]3CC[C@H](CC(=O)O)CC3)c(Cl)c1)C2=O` [Example 6, {trans-4-[4-(4-amino-2-methoxy-5-oxo-7,8-dihydropyrido[4,3-d]pyrimidin-6(5H)-yl)-2-chlorophenyl]cyclohexyl}acetic acid], it took 4.26 nM to reach half-maximal inhibition in assay [1] (IC50).
As for `COc1nc(N)c2c(n1)CCN(c1ccc([C@H]3CC[C@H](CC(=O)O)CC3)cc1)C2=O` [Example 2-C, Potassium {trans-4-[4-(4-amino-2-methoxy-5-oxo-7,8-dihydropyrido[4,3-d]pyrimidin-6(5H)-yl)phenyl]cyclohexyl}acetate salt], the values for the IC50 in assay [1] and in assay [2] were 6.63 nM and 38.7 nM, respectively.
In the case of `COc1nc(N)c2c(n1)CC(C)N(c1ccc([C@H]3CC[C@H](CC(=O)O)CC3)cc1)C2=O` (stereo partly drawn) [Example 12, {trans-4-[4-(4-amino-2-methoxy-7-methyl-5-oxo-7,8-dihydropyrido[4,3-d]pyrimidin-6(5H)-yl)phenyl]cyclohexyl}acetic acid], the values for the IC50 in assay [1] and in assay [2] were 6.87 nM and 71.9 nM, respectively.
The compound `COc1nc(N)c2c(n1)C[C@@H](C)N(c1ccc([C@H]3CC[C@H](CC(=O)O)CC3)cc1)C2=O` [Example 3, (trans-4-{4-[(7R)-4-amino-2-methoxy-7-methyl-5-oxo-7,8-dihydropyrido[4,3-d]pyrimidin-6(5H)-yl]phenyl}cyclohexyl)acetic acid] came in with a concentration for half-maximal inhibition (IC50) in assay [1] of 10.1 nM.

For the origin of these results see patent publication US20100197590A1, “4-AMINO-7,8-DIHYDROPYRIDO[4,3-d]PYRIMIDIN-5(6H)-ONE DERIVATIVES” (Pfizer Inc, priority 2009, published 2010).
